Reference: patent publication EP0020955A1, “Geometrical isomers of 4,4-dimethyl-1-phenyl-2-(1,2,4-triazole-1-yl)-1-penten-3-ols, process for their preparation and medicament containing them” (BAYER AG, priority 1979, dated 1981)
≈ marks a conversion by molar mass, not a printed value.

How the values were obtained:
[1] = test system: Trichophyton mentagr.; experiment: Antifungal in vitro activity, agar dilution test (MIC); format: cell-based, Trichophyton mentagrophytes; conditions: Kimmig agar, inoculum 2 - 5 x 10^3 fungal particles per spot, dermatophytes 96 h, 27°C
Text: (§1) Versuchsbeschreibung: • Die in-vitro-Wirksamkeit - gemessen anhand der minimalen Hemmkonzentration - wurde im Agarverdünnungstest ermittelt. Auf Serien von Kimmig - Agarplatten, die die entsprechenden Wirkstoffkonzentrationen im Agar gelöst enthielten, wurden mit Hilfe eines automatischen Beimpfungsgerätes Proben der Keimsuspesionen tropfenförmig aufgebracht. Das Inokulum betrug 2 - 5 x 10^3 Pilzpartikel pro Impfpunkt. Im Falle der Hefen lag die Bebrütungsdauer bei 24 Stunden, im Falle der Dermatophyten bei 96 Stunden; Bebrütungstemperatur 27°C.

[2] = test system: Aspergillus fumigatus; experiment: as above; format: cell-based; conditions: Kimmig agar, inoculum 2 - 5 x 10^3 fungal particles per spot, 27°C
Text: as §1

[3] = test system: Candida albicans; experiment: as above; format: cell-based; conditions: Kimmig agar, inoculum 2 - 5 x 10^3 fungal particles per spot, yeasts 24 h, 27°C
Text: as §1

[4] = test system: Microsporon canis; experiment: as above; format: cell-based; conditions: Kimmig agar, inoculum 2 - 5 x 10^3 fungal particles per spot, dermatophytes 96 h, 27°C
Text: as §1

[5] = test system: Torulopsis glabrata; experiment: as above; format: cell-based; conditions: Kimmig agar, inoculum 2 - 5 x 10^3 fungal particles per spot, yeasts 24 h, 27°C
Text: as §1

[6] = test system: Candida-Zellen; experiment: Antimicrobial in vivo activity (oral) in mouse candidosis; parameters: species or system Mäuse vom Typ SPF-CF; conditions: mice infected i.v. with Candida; 12,5 bis 25mg/kg 2 x daily over 5 days oral; survivors on day 6 p.i.
Experimental: Mäuse vom Typ SPF-CF werden intravenös mit 1-2 x 10^6 1 logarithmisch wachsenden Candida-Zellen, suspendiert in physiologischer Kochsalzlösung, infiziert. Die Tiere werden mit Dosierungen von 12,5 bis 25mg/kg Körpergewicht 2 x täglich über 5 Tage oral behandelt.
Unbehandelte Tiere starben 3 bis 6 Tage post infektionem. Die Ueberlebensrate am 6.Tag post infektionem betrug bei unbehandelten Kontrolltieren etwa 5 %.

[7] = test system: Trichophyton mentagrophytes; experiment: Antimicrobial in vivo activity (local and oral) in experimental guinea pig trichophytosis; parameters: species or system Meerschweinchen der Rasse Pirbright-white; conditions: for Wirkung lokale Therapie (1%-ige Lösung): local, 1 x daily from day 3 p.i., 1% solution in Dimethylsulfoxid : Glycerin = 1 : 4
Text: Versuchsbeschreibung: • Weiße Meerschweinchen der Rasse Pirbright-white werden auf dem geschorenen, nicht skarifizierten Rücken mit einer Mikro- und Makrokonidien-Suspension von Trichophyton mentagrophytes infiziert. Bei unbehandelten Tieren entwickelt sich innerhalb 12 Tagen p.i. das typische Bild einer Dermatophytose mit Rötung, Schuppung und Haarausfall bis zum totalen Integument-Defekt an der Infektionsstelle. […]

Molecule	Minimale Hemmkonzentration [1]	Minimale Hemmkonzentration [2]	Minimale Hemmkonzentration [3]	Minimale Hemmkonzentration [4]	Minimale Hemmkonzentration [5]	Wirkung [6]	Wirkung lokale Therapie (1%-ige Lösung) [7]	MIC ([5]; Nakaseomyces glabratus, 24 h, read-out: Minimale Hemmkonzentration)	Wirkung orale Therapie (50mg/kg/die) ([7]; oral, 1 x daily from day of infection, aqueous solution)
1-(4-Chlorphenyl)-4,4-dimethyl-2-(1,2,4-triazol-1-yl)-1-penten-3-ol [geometrisches Isomerengemisch (bekannt)]	<1 µg/mL	8 µg/mL	8 µg/mL	8 µg/mL	4 µg/mL	+++ (Wirkung = ≥60% Ueberlebende am 6.Tag p.i.)	schwache Wirkung	–	–
CC(C)(C)C(O)C(=Cc1ccc(Cl)cc1)n1cncn1 (single isomer, unassigned) [Form A, 1-(4-Chlorphenyl)-4,4-dimethyl-2-(1,2,4-triazol-1-yl)-1-penten-3-ol]	4 µg/mL	32 µg/mL	4 µg/mL	32 µg/mL	–	kW (keine Wirkung)	–	1 µg/mL (≈ 3.43 µM)	–
CC(C)(C)C(O)C(=Cc1ccc(Cl)cc1)n1cncn1 (single isomer, unassigned) [Form B(1), 1-(4-Chlorphenyl)-4,4-dimethyl-2-(1,2,4-triazol-1-yl)-1-penten-3-ol]	<1 µg/mL	1 to 4 µg/mL	<1 µg/mL	<1 µg/mL	<1 µg/mL	+++++ (sehr gute Wirkung = >95% Ueberlebende am 6.Tag p.i.)	sehr gute Wirkung	–	sehr gute Wirkung
